Patent US11597708B2, “Inhibitors of heat shock factors and uses thereof” (HSF Pharmaceuticals SA, priority 2016, dated 2023)

What was measured:
[1] = molecular target: T1, HSF1 DNA-binding activity (Homo sapiens, UniProt Q00613); experiment: EMSA of extracts of heat-treated HeLa cells exposed to compound; assay type: cell-based; conditions: HeLa cells exposed to different concentrations, heat-treated 43° C./30 min; effect of IHSF 058 at 25 or 50 μM
T1 construct: functionally linked to an hsp70b promoter and therefore controlled by endogenous HSF1; endogenous in cells; host or cells: HeLa cells / HeLa-derived cell line Z74
Experimental: (§1) FIG. 3. (A) HeLa cell cultures were mock-treated (−) or exposed for 2 hours to the indicated concentrations of compounds 058 or 115 and then heat-treated (HS) at 43° C. for 30 min. Top panels: HSF1 DNA-binding activities in cell extracts were determined by EMSA. The panels show the major HSF1-HSE DNA probe complexes. Middle panels: HSF1 levels assayed by western blot (WB). GAPDH served as a loading control. Bottom panels: HSF1 homooligomerization. Aliquots of extracts were EGS-treated and then analyzed by anti-HSF1 WB. The positions of pre-stained molecular weight marker proteins (MW, in thousands) are indicated to the right. Asterisks indicate the positions of monomeric and trimeric HSF1, respectively. (B) Relative occupancy of the hspa1a promoter was assessed by chromatin immunoprecipitation assay of HeLa cell cultures mock-treated (−) or treated with compounds 058 or 115 at 12.5 μM concentrations for 2 hours and then heat-treated (HS) at 43° C. for 30 min. Chromatin fragments were immunoprecipitated using HSF1 antibodies or an F4/80 LR (control) antibody, and associated hspa1a promoter DNA was quantified by real-time PCR. […]

[2] = molecular target: T2, HSF1 oligomerization (Homo sapiens, UniProt Q00613); experiment: EGS cross-linking and anti-HSF1 western blot (HSF1 oligomerization); assay type: cell-based; conditions: extracts of exposed, heat-treated HeLa cells
T2 construct: functionally linked to an hsp70b promoter and therefore controlled by endogenous HSF1; endogenous in cells; host or cells: HeLa cells / HeLa-derived cell line Z74
Experimental: FIG. 3. (A) HeLa cell cultures were mock-treated (−) or exposed for 2 hours to the indicated concentrations of compounds 058 or 115 and then heat-treated (HS) at 43° C. for 30 min. Top panels: HSF1 DNA-binding activities in cell extracts were determined by EMSA. The panels show the major HSF1-HSE DNA probe complexes. Middle panels: HSF1 levels assayed by western blot (WB). GAPDH served as a loading control. Bottom panels: HSF1 homooligomerization. Aliquots of extracts were EGS-treated and then analyzed by anti-HSF1 WB. The positions of pre-stained molecular weight marker proteins (MW, in thousands) are indicated to the right. Asterisks indicate the positions of monomeric and trimeric HSF1, respectively. (B) Relative occupancy of the hspa1a promoter was assessed by chromatin immunoprecipitation assay of HeLa cell cultures mock-treated (−) or treated with compounds 058 or 115 at 12.5 μM concentrations for 2 hours and then heat-treated (HS) at 43° C. for 30 min. Chromatin fragments were immunoprecipitated using HSF1 antibodies or an F4/80 LR (control) antibody, and associated hspa1a promoter DNA was quantified by real-time PCR.
We also investigated whether the compounds were capable of interfering with HSF1 oligomerization. Aliquots of the extracts were subjected to cross-linking with EGS (ethylene glycolbis(succinimidylsuccinate)) and then re-analyzed by anti-HSF1 WB. […]

[3] = Aqueous solubility (statement); assay type: physicochemical
[4] = molecular target: T3, HSF1 levels (Homo sapiens, UniProt Q00613); experiment: Anti-HSF1 western blot of HeLa cell extracts; assay type: cell-based; conditions: same extracts of exposed, heat-treated HeLa cells
T3 construct: functionally linked to an hsp70b promoter and therefore controlled by endogenous HSF1; endogenous in cells; host or cells: HeLa cells / HeLa-derived cell line Z74
Experimental: as §1

[5] = system: hspa1a; experiment: Reverse transcription real-time PCR of hspa1a mRNA in Z74 cells; assay type: cell-based, human; conditions: heat-treated, somewhat less sensitive than rluc gene
Experimental: (§2) FIG. 4. (A) rluc, hspa7 and hspa1a mRNA levels in Z74 cells mock-exposed (−) or exposed to the indicated concentrations of compounds 058 or 115 for 2 hours, heat-treated (HS) at 43° C. for 30 min and post-incubated for one hour at 37° C. mRNA levels were quantified by reverse transcription-real-time PCR. (B) HSP72 levels in HeLa cells mock-exposed (−) or exposed to the indicated concentrations of compounds 058 or 115 for 2 hours, heat-treated (HS) at 43° C. for 30 min and post-incubated for 6 hours at 37° C. HSP72 levels were estimated by HSP72 WB. GAPDH levels served as “loading controls”.
(§3) To assess the transcriptional effects of the IHSF, cultures of Z74 cells were exposed for two hours to IHSF 058 or IHSF 115 at different concentrations, or to vehicle. Following heat treatment and a one-hour post-incubation at 37° C., extracts were prepared, and polyadenylated rluc, hsp70b (hspa7) and hspa1a RNA was quantified by reverse transcription and real-time PCR. […] IHSF 115 had somewhat more important effects than IHSF 058. […] We tend to discount the possibility that the latter data report effects on transcript stability.

[6] = system: hspa7 (hsp70b); experiment: Reverse transcription real-time PCR of hspa7 (hsp70b) mRNA in Z74 cells; assay type: cell-based, human; conditions: heat-treated, somewhat less sensitive than rluc gene
Experimental: as §2, §3

[7] = Dissolution in aqueous Kleptose HPB stock solution; assay type: physicochemical; conditions: 85 mg in 8.5 ml of 357 mg/ml Kleptose HPB stock solution, overnight, slow agitation, room temperature
Experimental: 1. Prepare 15 ml of a 357 mg/ml stock solution of Kleptose HPB (Roquette Pharma) in water (of which the amount not used under 2 is reserved for vehicle controls).
2. Dissolve 85 mg of compound 0115 in 8.5 ml of Kleptose stock solution by incubating the solution overnight with slow agitation (at room temperature). Over 90% of the drug substance will be dissolved after this incubation.

T3 sequence (Q00613 whole entry): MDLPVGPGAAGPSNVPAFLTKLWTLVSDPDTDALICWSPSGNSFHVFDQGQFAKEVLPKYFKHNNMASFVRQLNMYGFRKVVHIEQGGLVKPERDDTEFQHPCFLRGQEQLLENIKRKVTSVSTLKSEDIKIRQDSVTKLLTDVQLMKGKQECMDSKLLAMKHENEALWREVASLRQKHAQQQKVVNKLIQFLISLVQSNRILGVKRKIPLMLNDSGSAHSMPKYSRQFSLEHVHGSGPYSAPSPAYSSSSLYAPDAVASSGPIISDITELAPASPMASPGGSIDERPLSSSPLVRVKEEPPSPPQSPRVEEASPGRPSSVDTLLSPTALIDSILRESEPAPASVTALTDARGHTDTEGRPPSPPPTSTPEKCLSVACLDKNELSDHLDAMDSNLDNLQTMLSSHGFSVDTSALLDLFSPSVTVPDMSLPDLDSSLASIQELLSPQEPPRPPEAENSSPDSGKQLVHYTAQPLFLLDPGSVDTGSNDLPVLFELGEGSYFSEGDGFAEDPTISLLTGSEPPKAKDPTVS
T1 sequence (Q00613 whole entry): as above
T2 sequence (Q00613 whole entry): as above

Row | SMILES | heat-induced HSF1 DNA-binding activity (EMSA) [1] | HSF1 oligomerization (EGS cross-linking, anti-HSF1 WB) [2] | aqueous solubility [3] | HSF1 levels (anti-HSF1 western blot) [4] | hspa1a transcript accumulation [5] | hspa7 (hsp70b) transcript accumulation [6] | drug substance dissolved [7]
1 | CCOC(=O)/C=C/C(=O)Nc1ncc(-c2cccnc2)s1 [IHSF 058, (E)-3-(5-Pyridm-3-yl-thiazol-2-ylcarbamoyl)-acrylic acid ethyl ester] | important reductions | No impairment of oligomerization | limited | reduced levels of HSF1 | Dose-dependent inhibitory effects | Dose-dependent inhibitory effects | –
2 | CN(C(=O)/C=C/C1=NCCCO1)c1ncc(-c2cccnc2)s1 [IHSF 115, (E)-3-(5,6-Dihydro-4H-[1,3]oxazin-2-yl)-N-methyl-N-(5-pyridin-3-yl-thiazol-2-yl)-acrylamide] | failed to have a similar effect | No impairment of oligomerization | limited | did not affect HSF1 levels | Dose-dependent inhibitory effects | Dose-dependent inhibitory effects | Over 90%
